Five compounds from patent publication US8399486B2, “Benzenesulfonyl compounds and the use thereof” (Purdue Pharma L.P., priority 2007, dated 2013) can be followed below.

The target of test [1] is T1, L-type calcium channel (LTCC) (Rattus norvegicus, UniProt P22002).
T1 construct: expressed in transfected cells; pcDNA6.2DEST α1c, pcDNA3.2DEST β1, pcDNA3.1-Zeo α2δ)
The test is described as follows: FLIPR calcium mobilization assay for L-type calcium channel. It counts as cell-based. The note with it: calcium mobilization in vitro assay, HEK293 cells expressing recombinant rat LTCC subunits (α1c, α2δ, β1), 90 mM KCl. As for the experimental part:
Recombinant human embryonal kidney cells (HEK293, ATCC) stably transfected with either N-type calcium channel (NTCC) subunits (α1b, α2δ, and β3) or L-type calcium channel (LTCC) subunits (α1c, α2δ, and β1) were routinely cultured in growth medium consisting of Dulbecco's Modified Eagles Medium containing 10% FBS, 100 U/mL penicillin, 100 μg/mL streptomycin, 4 mM L-glutamine, 500 μg/mL geneticin (G418), 20 μg/mL Blasticidin S (InVivogen, San Diego, Calif.) and 500 μg/mL zeocin (InVivogen).
FLIPR Calcium Mobilization Assay for L-type Calcium Channel. One day prior to performing this assay, HEK293 cells stably expressing recombinant rat L-type calcium channel (LTCC) subunits (α1c, α2δ, and β1) were trypsinized, then seeded on poly-D-lysine-coated 96-well clear-bottom black plates (Becton Dickinson, Franklin Lakes, N.J.) at 75,000 cells/well. On the day of the assay, the plates were washed with LTCC wash buffer (127 mM NaCl, 2 mM MgCl2, 700 μM NaH2PO4, 5 mM CaCl2, 5 mM NaHCO3, 8 mM HEPES, 10 mM glucose, pH 7.4), then loaded with 0.1 mL of LTCC wash buffer containing Fluo-4 (3 μM final concentration, Molecular Probes, Eugene, Oreg.). After 1 hour, the cells were washed with 0.1 mL LTCC wash buffer and resuspended in 0.05 mL LTCC assay buffer (same composition as LTCC wash buffer). Plates were then transferred to a FLIPR^96 for assay. The FLIPR measured basal Fluo-4 fluorescence for 15 seconds, then added 0.05 mL of each compound tested diluted in LTCC assay buffer at final concentrations ranging from about 846 pM to about 17 μM. Fluo-4 fluorescence was then measured for 5 minutes. 0.1 mL KCl agonist dissolved in LTCC assay buffer was then added to the cells to produce a final concentration of 90 mM KCl, and fluorescence was measured for another 45 seconds. Data were collected over the entire time course and analyzed using Excel, Graph Pad Prism, or an in-house regression analysis software.
L-type Recombinant Cell Line Development. L-type calcium channel expressing HEK-293 cells were created in two stages. Stage 1 was created as follows. The rat α1c, and β1 cDNA expression constructs (2.5 μg each) were co-transfected into human embryonic kidney (HEK-293) cells by Lipofectamine Plus reagent (Invitrogen), as per manufacturer's instructions. 24 hours later, cells were split in limiting dilution into multiple 96-well plates in selection media containing 20 μg/mL blasticidin and 500 μg/mL geneticin, and incubated for 3 weeks at 37° C., 5% CO2, 95% humidity. […] The FLIPR measured basal Fluo-4 fluorescence for 315 seconds, then added 0.1 mL KCl agonist dissolved in LTCC buffer and measured fluorescence for another 45 seconds. […] Data were collected over the entire time course and analyzed using Excel, Graph Pad Prism, or Activity Base software. […]

In test [2] the target is T2, N-type calcium channel (NTCC) (Homo sapiens, UniProt Q00975).
T2 construct: endogenous in cells; host or cells: IMR32 cells (ATCC), differentiated with dibutyryl cAMP and bromodeoxyuridine
The test is described as follows: FLIPR calcium mobilization assay for N-type calcium channel. The conditions noted are these: calcium mobilization in vitro assay, differentiated IMR32 cells, 90 mM KCl, 5 μM nitrendipine. The class given is cell-based. As for the experimental part: Cell maintenance and differentiation. Unless noted otherwise, cell culture reagents were purchased from Mediatech of Herndon, Md. IMR32 cells (American Type Culture Collection, ATCC, Manassas, Va.) were routinely cultured in growth medium consisting of minimum essential medium containing 10% fetal bovine serum (FBS, Hyclone, Logan, Utah), 100 U/mL penicillin, 100 μg/mL streptomycin, 2 mM L-glutamine, 1 mM sodium pyruvate, and 1×MEM non-essential amino acids. 80-90% confluent flasks of cells were differentiated using the following differentiation medium: Growth medium plus 1 mM dibutyryl cyclic AMP (Sigma, St. Louis, Mo.), and 2.5 μM bromodeoxyuridine (Sigma). Cells were differentiated for 8 days by replacing differentiation medium every 2-3 days.
FLIPR Calcium Mobilization Assay for N-type Calcium Channel. One day prior to performing this assay, differentiated IMR32 cells were treated with 1× CellStripper, and seeded on poly-D-lysine-coated 96-well clear-bottom black plates (Becton Dickinson, Franklin Lakes, N.J.) at 200,000 cells/well. On the day of the assay, the cell plates were washed with IMR32 buffer (127 mM NaCl, 1 mM KCl, 2 mM MgCl2, 700 μM NaH2PO4, 5 mM CaCl2, 5 mM NaHCO3, 8 mM HEPES, 10 mM glucose, pH 7.4), then pre-stimulated with KCl and loaded as follows: 0.05 mL of IMR32 buffer, 0.05 mL of each compound tested diluted in IMR32 buffer containing 20 μM nitrendipine (Sigma), and 0.1 mL KCl dissolved in IMR32 buffer, plus Fluo-4 were added (3 μM final concentration, Molecular Probes, Eugene, Oreg.). Final test compound concentrations ranged from about 846 μM to about 17 μM, final nitrendipine concentration was 5 μM, and final KCl concentration was 90 mM. After 1 hour, the cells were washed twice with 0.05 mL of each compound tested in nitrendipine-containing IMR32 buffer (no KCl or Fluo-4), and then replaced with 0.1 mL of each compound tested in nitrendipine-containing IMR32 buffer. Plates were then transferred to a Fluorimetric Imaging Plate Reader (FLIPR^96, Molecular Devices, Inc., Sunnyvale, Calif.) for assay. The FLIPR measured basal Fluo-4 fluorescence for 315 seconds (i.e., 5 minutes and 15 seconds), then added 0.1 mL KCl agonist dissolved in IMR32 buffer and measured fluorescence for another 45 seconds. Final test compound concentrations on the cells after FLIPR read ranged from about 846 pM to about 17 μM, final nitrendipine concentration was 5 μM, and final KCl concentration was 90 mM. Data were collected over the entire time course and analyzed using Excel, Graph Pad Prism (version 3.02, Graph Pad, San Diego, Calif.), or an in-house non-linear regression analysis software.

T1 sequence (P22002 whole entry): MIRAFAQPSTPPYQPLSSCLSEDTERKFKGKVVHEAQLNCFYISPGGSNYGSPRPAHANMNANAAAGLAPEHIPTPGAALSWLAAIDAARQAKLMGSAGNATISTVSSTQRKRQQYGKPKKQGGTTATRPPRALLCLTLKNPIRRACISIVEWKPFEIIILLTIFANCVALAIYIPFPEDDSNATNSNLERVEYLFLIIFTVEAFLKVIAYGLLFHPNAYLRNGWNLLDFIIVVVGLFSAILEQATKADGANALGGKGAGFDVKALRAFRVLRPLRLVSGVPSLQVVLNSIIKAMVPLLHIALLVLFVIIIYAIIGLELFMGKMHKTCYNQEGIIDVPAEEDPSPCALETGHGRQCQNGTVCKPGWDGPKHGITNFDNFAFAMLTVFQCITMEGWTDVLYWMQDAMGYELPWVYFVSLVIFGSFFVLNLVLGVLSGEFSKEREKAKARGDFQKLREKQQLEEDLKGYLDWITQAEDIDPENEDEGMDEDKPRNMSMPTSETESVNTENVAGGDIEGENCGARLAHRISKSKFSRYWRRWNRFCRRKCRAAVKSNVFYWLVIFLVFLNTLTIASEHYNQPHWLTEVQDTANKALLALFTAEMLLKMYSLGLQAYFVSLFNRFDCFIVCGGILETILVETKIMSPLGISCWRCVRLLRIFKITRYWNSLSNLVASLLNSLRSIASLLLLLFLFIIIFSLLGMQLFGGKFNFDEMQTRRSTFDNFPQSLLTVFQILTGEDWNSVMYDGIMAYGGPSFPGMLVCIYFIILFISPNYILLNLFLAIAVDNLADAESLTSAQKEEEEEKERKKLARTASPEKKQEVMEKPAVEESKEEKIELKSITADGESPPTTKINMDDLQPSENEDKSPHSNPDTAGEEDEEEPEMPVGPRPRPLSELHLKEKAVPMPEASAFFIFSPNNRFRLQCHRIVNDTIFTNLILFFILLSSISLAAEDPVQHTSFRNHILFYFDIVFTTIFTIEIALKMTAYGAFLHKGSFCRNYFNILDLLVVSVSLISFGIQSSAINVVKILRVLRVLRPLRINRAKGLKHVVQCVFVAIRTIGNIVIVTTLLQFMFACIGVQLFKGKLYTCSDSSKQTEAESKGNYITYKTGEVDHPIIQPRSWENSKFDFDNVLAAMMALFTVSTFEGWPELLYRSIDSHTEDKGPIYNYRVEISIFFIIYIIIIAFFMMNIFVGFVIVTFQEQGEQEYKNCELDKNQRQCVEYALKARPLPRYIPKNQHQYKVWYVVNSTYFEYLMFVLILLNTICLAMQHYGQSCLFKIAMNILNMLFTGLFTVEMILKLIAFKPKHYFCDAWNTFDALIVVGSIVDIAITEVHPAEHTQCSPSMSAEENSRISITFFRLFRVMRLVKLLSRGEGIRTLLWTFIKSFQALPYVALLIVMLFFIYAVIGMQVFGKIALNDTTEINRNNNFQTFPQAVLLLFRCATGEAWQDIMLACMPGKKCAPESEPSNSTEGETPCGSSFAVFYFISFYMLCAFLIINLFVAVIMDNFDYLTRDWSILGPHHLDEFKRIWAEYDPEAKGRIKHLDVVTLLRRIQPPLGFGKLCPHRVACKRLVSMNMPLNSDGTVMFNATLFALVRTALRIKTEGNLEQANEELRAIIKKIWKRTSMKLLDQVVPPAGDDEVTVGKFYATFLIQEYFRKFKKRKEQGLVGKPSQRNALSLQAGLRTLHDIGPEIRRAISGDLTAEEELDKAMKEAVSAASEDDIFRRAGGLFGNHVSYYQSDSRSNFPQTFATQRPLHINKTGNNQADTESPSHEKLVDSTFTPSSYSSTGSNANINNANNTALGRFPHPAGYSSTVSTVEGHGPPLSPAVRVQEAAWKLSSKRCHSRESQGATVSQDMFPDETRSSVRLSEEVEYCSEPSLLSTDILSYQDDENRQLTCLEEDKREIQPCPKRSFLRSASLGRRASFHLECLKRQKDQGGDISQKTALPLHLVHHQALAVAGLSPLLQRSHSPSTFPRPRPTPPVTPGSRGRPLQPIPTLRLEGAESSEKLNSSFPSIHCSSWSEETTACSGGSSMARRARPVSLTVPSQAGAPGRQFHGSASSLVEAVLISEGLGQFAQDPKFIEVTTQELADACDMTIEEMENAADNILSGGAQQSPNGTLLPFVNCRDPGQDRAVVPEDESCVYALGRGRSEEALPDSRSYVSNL
T1 sequence (P54290 25-944 partner): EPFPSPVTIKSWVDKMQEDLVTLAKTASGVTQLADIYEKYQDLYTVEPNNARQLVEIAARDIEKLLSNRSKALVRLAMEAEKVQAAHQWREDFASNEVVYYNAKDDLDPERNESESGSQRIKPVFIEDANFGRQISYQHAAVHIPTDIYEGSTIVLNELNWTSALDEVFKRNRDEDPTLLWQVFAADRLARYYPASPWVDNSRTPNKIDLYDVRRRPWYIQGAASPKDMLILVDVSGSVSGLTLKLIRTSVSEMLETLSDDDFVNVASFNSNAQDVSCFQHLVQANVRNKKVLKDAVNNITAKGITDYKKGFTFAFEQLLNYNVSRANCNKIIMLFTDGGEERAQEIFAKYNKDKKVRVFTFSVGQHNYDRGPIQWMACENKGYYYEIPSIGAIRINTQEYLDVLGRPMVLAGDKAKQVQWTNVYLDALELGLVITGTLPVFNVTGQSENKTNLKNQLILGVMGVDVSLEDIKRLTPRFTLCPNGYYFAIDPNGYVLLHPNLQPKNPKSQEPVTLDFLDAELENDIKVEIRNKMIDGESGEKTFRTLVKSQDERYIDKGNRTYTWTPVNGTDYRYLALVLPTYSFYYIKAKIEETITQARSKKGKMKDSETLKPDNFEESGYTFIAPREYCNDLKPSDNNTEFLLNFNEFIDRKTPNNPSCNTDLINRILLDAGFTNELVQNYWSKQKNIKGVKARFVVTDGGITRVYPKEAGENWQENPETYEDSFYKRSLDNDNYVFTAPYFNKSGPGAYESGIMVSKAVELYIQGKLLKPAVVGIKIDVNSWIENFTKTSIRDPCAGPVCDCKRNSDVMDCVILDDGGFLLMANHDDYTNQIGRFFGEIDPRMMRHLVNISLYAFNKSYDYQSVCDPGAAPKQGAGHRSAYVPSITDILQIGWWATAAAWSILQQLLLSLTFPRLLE
T1 sequence (P54290 945-1091 partner): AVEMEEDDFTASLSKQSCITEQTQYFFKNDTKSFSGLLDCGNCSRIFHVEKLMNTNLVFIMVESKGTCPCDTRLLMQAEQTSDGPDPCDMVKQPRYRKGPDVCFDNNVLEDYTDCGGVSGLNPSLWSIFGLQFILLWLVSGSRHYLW
T1 sequence (P54283 whole entry partner): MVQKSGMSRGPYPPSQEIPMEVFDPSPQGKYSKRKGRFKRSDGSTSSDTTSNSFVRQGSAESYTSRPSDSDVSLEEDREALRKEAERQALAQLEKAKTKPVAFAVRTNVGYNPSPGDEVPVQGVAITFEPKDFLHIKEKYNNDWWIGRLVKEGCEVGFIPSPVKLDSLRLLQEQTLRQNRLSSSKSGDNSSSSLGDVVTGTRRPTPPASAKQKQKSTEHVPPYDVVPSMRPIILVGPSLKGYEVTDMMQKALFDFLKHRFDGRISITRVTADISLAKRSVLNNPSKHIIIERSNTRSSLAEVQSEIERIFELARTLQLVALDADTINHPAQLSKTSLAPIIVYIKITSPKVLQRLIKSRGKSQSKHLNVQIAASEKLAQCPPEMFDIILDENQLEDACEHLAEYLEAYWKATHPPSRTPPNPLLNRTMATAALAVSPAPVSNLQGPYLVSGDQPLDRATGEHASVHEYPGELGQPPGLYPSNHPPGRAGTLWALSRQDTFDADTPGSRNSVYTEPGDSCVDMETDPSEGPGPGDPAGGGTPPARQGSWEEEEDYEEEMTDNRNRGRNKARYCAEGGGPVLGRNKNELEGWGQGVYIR

As to `O=C(CNC1CCN(S(=O)(=O)c2cccc(C(F)(F)F)c2)CC1)Nc1ccc(F)cc1` [Compound 6, N-(4-Fluorophenyl)-2-[1-(3-trifluoromethyl-benzenesulfonyl)-piperidin-4-ylamino]acetamide], the figures for the IC50 in test [1] and in test [2] were more than 20 µM and 0.46 µM, respectively.

On to `O=C(CNC1CCN(S(=O)(=O)c2cccc(C(F)(F)F)c2)C1)Nc1ccc(F)cc1` (stereo not drawn) [Compound 10, N-(4-Fluorophenyl)-2-[1-(3-trifluoromethylbenzenesulfonyl)-pyrrolidin-3-ylamino]-acetamide], for which the IC50 in test [1] was 5.98 µM; in test [2], 0.47 µM.

On to `O=C(CN(C1CC1)C1CCN(S(=O)(=O)c2cccc(C(F)(F)F)c2)CC1)Nc1ccc(F)cc1` [Compound 14, 2-{Cyclopropyl-[1-(3-trifluoromethylbenzenesulfonyl)-piperidin-4-yl]amino}-N-(4-fluorophenyl)acetamide], for which the IC50 in test [1] worked out at 9.33 µM; in test [2], 0.79 µM.

On to `O=C(CNC1CCN(S(=O)(=O)c2cccc(C(F)(F)F)c2)CC1)Nc1cc(C(F)(F)F)cc(C(F)(F)F)c1` [Compound 18, N-(3,5-Bis-(trifluoromethyl)phenyl)-2-[1-(3-trifluoromethyl-benzenesulfonyl)piperidin-4-ylamino]acetamide], for which the figures for the IC50 in test [1] and in test [2] were more than 20 µM and 0.74 µM, respectively.

Take `O=C(CC(=O)NC1CCN(S(=O)(=O)c2cccc(C(F)(F)F)c2)CC1)Nc1ccc(F)cc1F` [Compound 23, N-(2,4-Difluorophenyl)-N′-[1-(3-trifluoromethylbenzenesulfonyl)-piperidin-4-yl]malonamide]: the IC50 in test [2] is 1.29 µM.

In general, IC50 refers to the concentration that gives 50% inhibition.
